Data on 34 compounds can be found in patent US7601868B2, “Amine derivative” (Takeda Pharmaceutical Company Limited, priority 2003, dated 2009).

On to `CC(c1ccc(CCNC(=O)c2ccc(-c3ccc(Cl)cc3)cc2)cc1)N1CCSCC1` (stereo not shown) [Example 37, 4′-chloro-N-(2-{4-[1-(4-thiomorpholinyl)ethyl]phenyl}ethyl)[1,1′-biphenyl]-4-carboxamide], for which the melting point lay within 168 to 169 °C.
Under `O=C(NCCc1ccc(CN2CCCC2)cc1)c1ccc(OCCC2CC2)cc1F` [Example 141, 4-(2-cyclopropylethoxy)-2-fluoro-N-{2-[4-(1-pyrrolidinylmethyl)phenyl]ethyl}benzamide] stands 66 to 68 °C; under `COc1ccc(-c2ccc(C(=O)NCCc3ccc(C4CCCN4C)cc3)cc2)cc1` (stereo not shown) [Example 139, 4′-methoxy-N-{2-[4-(1-methyl-2-pyrrolidinyl)phenyl]ethyl}[1,1′-biphenyl]-4-carboxamide], 165 to 167 °C; under `CCCCCc1ccc(C(=O)NCCc2ccc(CN3CCCC3)cc2)cc1` [Example 3, 4-pentyl-N-{2-[4-(1-pyrrolidinylmethyl)phenyl]ethyl}benzamide], 91 to 93 °C.
`O=C(COc1ccc(CN2CCCC2)cc1)Nc1ccc(Br)cc1` [Reference Example 46, N-(4-bromophenyl)-2-[4-(1-pyrrolidinylmethyl)phenoxy]acetamide] registered a melting point of 143 to 145 °C.
`CC(CNC(=O)c1ccc(-c2ccc(Cl)cc2)cc1)c1ccc(CN2CCCC2)cc1` (stereo not shown) [Example 8, 4′-chloro-N-{2-[4-(1-pyrrolidinylmethyl)phenyl]propyl}[1,1′-biphenyl]-4-carboxamide]: the melting point fell in the range of 156 to 157 °C.
As for `O=C(CCc1ccc(CN2CCCC2)cc1)Nc1ccc(Br)cc1` [Reference Example 41, N-(4-bromophenyl)-3-[4-(1-pyrrolidinylmethyl)phenyl]propanamide], the melting point fell in the range of 137 to 138 °C.
The value for `O=C(/C=C/c1ccc(CN2CCCC2)cc1)Nc1ccc(Br)cc1` [Reference Example 43, (E)-N-(4-bromophenyl)-3-[4-(1-pyrrolidinylmethyl)phenyl]-2-propenamide] was 184 to 186 °C; that for `O=C(NCCc1ccc(CN2CCCC2)cc1)c1ccc(OCC2CC2)cc1F` [Example 140, 4-cyclopropylmethoxy-2-fluoro-N-{2-[4-(1-pyrrolidinylmethyl)phenyl]ethyl}benzamide] was 90 to 92 °C.
On to `O=C(Cc1ccc(CN2CCCC2)cc1)NCc1ccc(Br)cc1` [Reference Example 38, N-(4-bromobenzyl)-2-[4-(1-pyrrolidinylmethyl)phenyl]acetamide], for which the melting point lay within 107 to 109 °C.
Under `CC(C)C(c1ccc(CCNC(=O)c2ccc(-c3ccc(Cl)cc3)cc2)cc1)N1CCCC1` (stereo not shown) [Example 36, 4′-chloro-N-(2-{4-[2-methyl-1-(1-pyrrolidinyl)propyl]phenyl}ethyl)[1,1′-biphenyl]-4-carboxamide] stands 143 to 145 °C; under `CCC(c1ccc(CCNC(=O)c2ccc(Br)cc2)cc1)N1CCCC1` (stereo not shown) [Example 32, 4-bromo-N-(2-{4-[1-(1-pyrrolidinyl)propyl]phenyl}ethyl)benzamide], 90 to 92 °C.
The value for `CC(c1ccc(CCNC(=O)c2ccc(-c3ccc(OC(F)(F)F)cc3)cc2)cc1)N1CCCC1` (stereo not shown) [Example 16, N-(2-{4-[1-(1-pyrrolidinyl)ethyl]phenyl}ethyl)-4′-(trifluoromethoxy)[1,1′-biphenyl]-4-carboxamide] was 135 to 137 °C; that for `CCCCCc1ccc(C(=O)NCC(C)c2ccc(CN3CCCC3)cc2)cc1` (stereo not shown) [Example 9, 4-pentyl-N-{2-[4-(1-pyrrolidinylmethyl)phenyl]propyl}benzamide] was 91 to 92 °C.
The value for `O=C(CCc1ccc(CN2CCCC2)cc1)Nc1ccc(-c2ccc(Cl)cc2)cc1` [compound 42, N-(4′-chloro-1,1′-biphenyl-4-yl)-3-[4-(1-pyrrolidinylmethyl)phenyl]propanamide] was 179 to 181 °C.
In the case of `CCCCCc1ccc(NC(=O)CCc2ccc(CN3CCCC3)cc2)cc1` [compound 40, N-(4-pentylphenyl)-3-[4-(1-pyrrolidinylmethyl)phenyl]propanamide], the melting point fell in the range of 104 to 105 °C.
Under `CC(c1ccc(CCNC(=O)c2ccc(Br)cc2)cc1)N1CCCC1` (stereo not shown) [Example 10, 4-bromo-N-(2-{4-[1-(1-pyrrolidinyl)ethyl]phenyl}ethyl)benzamide] stands 124 to 126 °C; under `CN1CCCC1c1ccc(CCNC(=O)c2ccc(OCC3CC3)cc2)cc1` (stereo not shown) [Example 138, 4-cyclopropylmethoxy-N-{2-[4-(1-methyl-2-pyrrolidinyl)phenyl]ethyl}benzamide], 143 to 145 °C.
The compound `O=C(/C=C/c1ccc(CN2CCCC2)cc1)Nc1ccc(-c2ccc(Cl)cc2)cc1` [compound 44, (E)-N-(4′-chloro-1,1′-biphenyl-4-yl)-3-[4-(1-pyrrolidinylmethyl)phenyl]-2-propenamide] returned a melting point of 207 to 209 °C.
The value for `CC(c1ccc(CCNC(=O)c2ccc(-c3ccc(F)cc3)cc2)cc1)N1CCCC1` (stereo not shown) [Example 13, 4′-fluoro-N-(2-{4-[1-(1-pyrrolidinyl)ethyl]phenyl}ethyl)[1,1′-biphenyl]-4-carboxamide] was 141 to 143 °C; that for `CCCCCc1ccc(C(=O)NCCc2ccc(C(C)N3CCCC3)cc2)cc1` (stereo not shown) [Example 38, 4-pentyl-N-(2-{4-[1-(1-pyrrolidinyl)ethyl]phenyl}ethyl)benzamide] was 76 to 77 °C.
`CC(CNC(=O)c1ccc(Br)cc1F)c1ccc(CN2CCCC2)cc1` (stereo not shown) [Example 5, 4-bromo-2-fluoro-N-{2-[4-(1-pyrrolidinylmethyl)phenyl]propyl}benzamide]: the melting point lay in the range of 80 to 82 °C.
Under `CC(CNC(=O)c1ccc(-c2ccc(Cl)cc2)cc1F)c1ccc(CN2CCCC2)cc1` (stereo not shown) [Example 6, 4′-chloro-3-fluoro-N-{2-[4-(1-pyrrolidinylmethyl)phenyl]propyl}[1,1′-biphenyl]-4-carboxamide] stands 119 to 121 °C; under `CC(c1ccc(CCNC(=O)c2ccc(-c3ccccc3)cc2)cc1)N1CCCC1` (stereo not shown) [Example 31, N-(2-{4-[1-(1-pyrrolidinyl)ethyl]phenyl}ethyl)[1,1′-biphenyl]-4-carboxamide], 136 to 138 °C.
The value for `O=C(Cc1ccc(CN2CCCC2)cc1)NCc1ccc(-c2ccc(Cl)cc2)cc1` [compound 39, N-[(4′-chloro-1,1′-biphenyl-4-yl)methyl]-2-[4-(1-pyrrolidinylmethyl)phenyl]acetamide] was 151 to 153 °C; that for `CC(c1ccc(CCNC(=O)c2ccc(-c3ccc(Cl)cc3)cc2)cc1)N1CCCC1` (stereo not shown) [Example 11, 4′-chloro-N-(2-{4-[1-(1-pyrrolidinyl)ethyl]phenyl}ethyl)[1,1′-biphenyl]-4-carboxamide] was 152 to 153 °C.
The value for `CCCC(=O)Cc1ccc(C(=O)NCCc2ccc(CN3CCCC3)cc2)cc1` [Example 4, 4-(2-oxopentyl)-N-{2-[4-(1-pyrrolidinylmethyl)phenyl]ethyl}benzamide] was 115 to 117 °C; that for `CN1CCCC1c1ccc(CCNC(=O)c2ccc(-c3ccc(Cl)cc3)cc2)cc1` (stereo not shown) [Example 137, 4′-chloro-N-{2-[4-(1-methyl-2-pyrrolidinyl)phenyl]ethyl}[1,1′-biphenyl]-4-carboxamide] was 169 to 171 °C; that for `O=C(NCCc1ccc(CN2CCCC2)cc1)N1CCC(c2ccc(Cl)cc2)CC1` [Example 1, 4-(4-chlorophenyl)-N-{2-[4-(1-pyrrolidinylmethyl)phenyl]ethyl}-1-piperidinecarboxamide] was 116 to 117 °C.
Compound `CCC(c1ccc(CCNC(=O)c2ccc(-c3ccc(Cl)cc3)cc2)cc1)N1CCCC1` (stereo not shown) [Example 33, 4′-chloro-N-(2-{4-[1-(1-pyrrolidinyl)propyl]phenyl}ethyl)[1,1′-biphenyl]-4-carboxamide] came in with a melting point of 151 to 153 °C.
Consider `Cc1ccc(-c2ccc(C(=O)NCCc3ccc(C(C)N4CCCC4)cc3)cc2)cc1` (stereo not shown) [Example 14, 4′-methyl-N-(2-{4-[1-(1-pyrrolidinyl)ethyl]phenyl}ethyl)[1,1′-biphenyl]-4-carboxamide], for which the melting point was 160 to 163 °C.
`O=C(NCCc1ccc(-c2ccc(Cl)cc2)cc1)c1ccc(CN2CCCC2)cc1` [compound 45, N-[2-(4′-chloro-1,1′-biphenyl-4-yl)ethyl]-4-(1-pyrrolidinylmethyl)benzamide] displayed a melting point of 187 to 189 °C.
`COc1ccc(-c2ccc(C(=O)NCCc3ccc(C(C)N4CCCC4)cc3)cc2)cc1` (stereo not shown) [Example 12, 4′-methoxy-N-(2-{4-[1-(1-pyrrolidinyl)ethyl]phenyl}ethyl)[1,1′-biphenyl]-4-carboxamide]: the melting point lay within 163 to 165 °C.
Under `CC(c1ccc(CCNC(=O)c2ccc(-c3ccc(C(F)(F)F)cc3)cc2)cc1)N1CCCC1` (stereo not shown) [Example 15, N-(2-{4-[1-(1-pyrrolidinyl)ethyl]phenyl}ethyl)-4′-(trifluoromethyl)[1,1′-biphenyl]-4-carboxamide] stands 149 to 151 °C.

By melting point is commonly meant the temperature of the solid-liquid transition.
